# Patent US9234025B2, “Extracellular allosteric inhibitor binding domain from a tyrosine kinase receptor” (SANOFI, priority 2009, dated 2016)
# How the values were obtained:
# FGFR2^∂23-Y328D [1] = molecular target: T1, FGFR2^∂23-Y328D (Homo sapiens, UniProt P21802, Y328D); test: FGF2-induced ERK1/2 phosphorylation in HEK293 cells, FGFR2 Y328D; assay type: cell-based; design: stably transfected HEK293 cells with full length FGFR2-WT or -Y328D; expressed in transfected cells; host or cells: HEK293; details: stable HEK293 FGFR2 Y328D cells; FGF2 0.5 ng/ml 5 min; average±sem, three experiments; read-out: IC50 value, inhibition of FGF2 induced ERK1/2 phosphorylation
# Method: HEK293 cells were either transiently of stably transfected (using FuGENE 6, Roche) with hFGFR2IIIca or hFGFR2IIIca-Y328D cloned in pcDNA3 (Invitrogen). Stably transfected cells were grown in G418 (400 μg/ml) containing medium. Before stimulation, the cells were starved overnight in DMEM (0% serum), and pre-incubated with […] at the required concentration. The cells were subsequently stimulated with FGF2 (concentration between 0.5-10 ng/ml) for 5 min at 37° C. with or without SSR or SU5402 at 1 μM. After washing with ice-cold phosphate-buffered saline containing phosphatase inhibitors (Roche), cells were lysed in RIPA buffer (Tris 30 mM HCl pH 7.5, 150 mM NaCl, 1 mM EDTA, 1% triton-X, 0.5% w/v deoxycholate, containing phophatase and protease inhibitors as described by the manufacturer (Roche)). Cell lysates were centrifuged at 12,000 g for 10 min, and the supernatants were collected. Proteins were separated on Novex polyacrylamide gels (Invitrogen, Carlsbad, Calif.) and subsequently transferred onto Hybond ECL nitrocellulose membranes (Amersham Pharmacia). Following incubation with 5% non-fat milk powder in PBS, the membranes were incubated overnight at 4° C. with the following antibodies: phospho-ERK1/2 (CST:9101), phospho-FRS2 (CST:3861), phospho-PLCγ (CST:2821) and FGFR2 (F0300, Sigma).
# Target sequence in this assay (P21802 22-821 Y328D): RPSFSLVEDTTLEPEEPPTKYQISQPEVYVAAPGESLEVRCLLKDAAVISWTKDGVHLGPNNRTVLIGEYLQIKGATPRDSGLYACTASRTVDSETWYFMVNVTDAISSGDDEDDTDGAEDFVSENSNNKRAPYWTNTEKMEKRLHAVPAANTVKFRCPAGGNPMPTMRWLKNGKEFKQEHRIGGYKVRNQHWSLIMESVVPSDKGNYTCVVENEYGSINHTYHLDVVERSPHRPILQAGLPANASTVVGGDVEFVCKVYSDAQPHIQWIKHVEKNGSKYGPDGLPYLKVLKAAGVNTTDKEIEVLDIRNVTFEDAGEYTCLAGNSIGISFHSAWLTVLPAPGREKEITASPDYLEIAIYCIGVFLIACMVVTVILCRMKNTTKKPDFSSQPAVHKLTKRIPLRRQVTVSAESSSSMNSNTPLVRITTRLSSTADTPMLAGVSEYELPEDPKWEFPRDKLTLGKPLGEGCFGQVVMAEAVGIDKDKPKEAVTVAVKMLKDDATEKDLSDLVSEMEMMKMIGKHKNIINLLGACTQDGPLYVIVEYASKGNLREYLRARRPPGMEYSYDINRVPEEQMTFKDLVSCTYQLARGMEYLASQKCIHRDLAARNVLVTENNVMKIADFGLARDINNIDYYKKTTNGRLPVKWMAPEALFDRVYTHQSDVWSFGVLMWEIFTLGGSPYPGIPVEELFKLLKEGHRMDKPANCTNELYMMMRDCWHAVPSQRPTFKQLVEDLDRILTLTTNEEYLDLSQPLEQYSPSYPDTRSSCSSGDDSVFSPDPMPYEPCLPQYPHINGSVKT
# FGFR1 (PAE-FGFR1) = molecular target: T2, FGFR1 (PAE-FGFR1) (Homo sapiens, UniProt P11362); test: I125-FGF2 binding assay on PAE-FGFR1 cells; details: porcine aortic endothelial cells overexpressing FGFR1; SSR even at high μM concentrations
# T2 construct: or the expression of the entire intact receptor in its native environment; expressed in transfected cells; host or cells: porcine aortic endothelial cells (PAE)
# T2 sequence (P11362 22-822): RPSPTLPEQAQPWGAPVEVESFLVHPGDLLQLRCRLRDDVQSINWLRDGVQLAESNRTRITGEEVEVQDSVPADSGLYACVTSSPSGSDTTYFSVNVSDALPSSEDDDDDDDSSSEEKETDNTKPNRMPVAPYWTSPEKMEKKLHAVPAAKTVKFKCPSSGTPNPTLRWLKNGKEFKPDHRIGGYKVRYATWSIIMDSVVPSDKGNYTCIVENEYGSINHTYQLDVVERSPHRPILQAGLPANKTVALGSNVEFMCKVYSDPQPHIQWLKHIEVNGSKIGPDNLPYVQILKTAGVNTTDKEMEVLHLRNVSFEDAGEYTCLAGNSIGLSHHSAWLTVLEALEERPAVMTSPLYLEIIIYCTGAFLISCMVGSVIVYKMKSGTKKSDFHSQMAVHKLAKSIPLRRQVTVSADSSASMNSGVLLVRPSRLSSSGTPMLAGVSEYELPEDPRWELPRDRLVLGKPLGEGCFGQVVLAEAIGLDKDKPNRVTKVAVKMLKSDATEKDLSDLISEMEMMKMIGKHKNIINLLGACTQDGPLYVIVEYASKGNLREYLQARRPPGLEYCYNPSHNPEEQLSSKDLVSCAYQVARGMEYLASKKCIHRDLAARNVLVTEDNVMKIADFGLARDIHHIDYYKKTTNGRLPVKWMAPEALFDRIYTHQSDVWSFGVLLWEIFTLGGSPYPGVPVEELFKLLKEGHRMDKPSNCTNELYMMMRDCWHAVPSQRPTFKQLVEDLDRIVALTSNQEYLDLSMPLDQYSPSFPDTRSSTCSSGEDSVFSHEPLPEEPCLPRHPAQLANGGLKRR
# FGFR2^∂23-Y328D [2] = molecular target: T1, FGFR2^∂23-Y328D; test: FTIR measurement, FGFR2 Y328D mutant; design: FGFR2^∂23 (consisting of domain D2 and 3); made in house; details: 100 μM SSR
# Method: Fourier transform infrared measurements were performed using a Bruker Tensor 37 FT-IR spectrometer equipped with an AquaSpec flowcell. The sample compartment was thermostatted to 25° C., 100 spectra were averaged for a good signal to noise ratio. Proteins were purified as described above. Immediately after the gelfiltration, the proteins were dialysed overnight in the same preparation of buffer (10 mM Hepes pH 7.2, 150 mM NaCl) in the presence or absence of SSR. Dialysis buffer samples were used to substract background signal. The analysis was performed using the OPUS software package, provided by Bruker. Interpretation of the results was performed as described {Barth, 2002 #60}.
# We next explored whether SSR bound to amino acid residues that form part of the orthosteric site in D3 or to an alternative allosteric site. Initially, we used the molecular docking algorithms of the software packages MOLEGRO, Autodock and YASARA and available crystallographic data. […] These findings are consistent with a model whereby SSR binds to an allosteric site formed by a hydrophobic pocket near the orthosteric ligand binding site, and in which residue Tyr^328 seems to be critical for mediating the interaction between SSR to FGFR2. We also analyzed the FTIR spectrum of the aforementioned mutated FGFR2 fragments.
# Target sequence in this assay (P21802 148-366 Y328D limits assumed): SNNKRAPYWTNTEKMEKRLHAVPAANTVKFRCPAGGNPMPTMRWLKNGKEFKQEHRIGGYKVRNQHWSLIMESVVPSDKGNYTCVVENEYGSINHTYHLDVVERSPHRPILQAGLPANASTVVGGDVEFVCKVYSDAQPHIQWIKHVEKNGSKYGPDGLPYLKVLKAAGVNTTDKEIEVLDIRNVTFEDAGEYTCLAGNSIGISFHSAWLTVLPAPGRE
# [3] = test system: human umbilical vein endothelial cells (HUVECs); test: I125-FGF2 binding assay on HUVECs; details: intact cells, SSR even at high μM concentrations
# FGFR3^∂23 = molecular target: T3, FGFR3^∂23 (Homo sapiens, UniProt P22607); test: isothermal titration calorimetry (ITC), FGFR3; assay type: binding
# T3 construct: two ECD fragments, FGFR2^∂23 (consisting of domain D2 and 3) and FGFR3^∂23; made in house
# T3 sequence (P22607 145-365): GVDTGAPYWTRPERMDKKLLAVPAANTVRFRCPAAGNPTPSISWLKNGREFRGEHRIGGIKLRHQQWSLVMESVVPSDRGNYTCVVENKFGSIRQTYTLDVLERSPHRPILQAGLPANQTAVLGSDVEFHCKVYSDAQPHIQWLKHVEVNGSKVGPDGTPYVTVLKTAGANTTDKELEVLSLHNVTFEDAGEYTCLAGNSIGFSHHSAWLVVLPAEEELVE
# FGF2 = FGF2 (Homo sapiens, UniProt P09038); test: FGF2 dimerization; assay type: biochemical
# Sequence of FGF2 (P09038 134-288, species assumed): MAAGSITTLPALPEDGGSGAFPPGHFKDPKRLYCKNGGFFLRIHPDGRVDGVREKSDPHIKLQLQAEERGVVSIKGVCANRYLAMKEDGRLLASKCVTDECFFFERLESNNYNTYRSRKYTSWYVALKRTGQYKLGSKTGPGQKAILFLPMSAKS
# FGFR4 = molecular target: T4, FGFR4 (Homo sapiens, UniProt P22455); test: AlexaFluor488-FGF2 binding on FGFR4-transfected 300-19 cells (flow cytometry); details: SSR 300 nM; FGF2 10 ng/ml; murine pre-B 300-19 cells
# T4 construct: expressed in transfected cells; host or cells: murine pre-B 300-19 cells
# T4 sequence (P22455 22-802): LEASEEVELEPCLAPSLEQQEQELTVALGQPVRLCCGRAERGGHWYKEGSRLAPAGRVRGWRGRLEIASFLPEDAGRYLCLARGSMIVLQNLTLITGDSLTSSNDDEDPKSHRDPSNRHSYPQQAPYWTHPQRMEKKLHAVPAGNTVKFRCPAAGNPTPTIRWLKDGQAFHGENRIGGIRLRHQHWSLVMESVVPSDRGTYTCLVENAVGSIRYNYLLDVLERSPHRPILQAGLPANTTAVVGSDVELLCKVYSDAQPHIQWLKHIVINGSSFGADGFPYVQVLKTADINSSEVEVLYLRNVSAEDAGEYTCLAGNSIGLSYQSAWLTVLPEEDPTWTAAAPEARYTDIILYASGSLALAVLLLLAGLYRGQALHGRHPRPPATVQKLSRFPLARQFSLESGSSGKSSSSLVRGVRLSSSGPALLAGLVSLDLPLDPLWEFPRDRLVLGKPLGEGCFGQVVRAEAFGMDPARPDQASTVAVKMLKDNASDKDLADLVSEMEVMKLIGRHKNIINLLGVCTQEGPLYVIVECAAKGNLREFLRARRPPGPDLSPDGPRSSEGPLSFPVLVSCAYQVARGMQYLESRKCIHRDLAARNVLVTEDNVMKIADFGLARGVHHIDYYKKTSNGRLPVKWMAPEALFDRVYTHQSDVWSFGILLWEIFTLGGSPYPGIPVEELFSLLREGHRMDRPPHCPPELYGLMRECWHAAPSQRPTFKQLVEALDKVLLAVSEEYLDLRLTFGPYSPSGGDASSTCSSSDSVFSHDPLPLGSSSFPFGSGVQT
# Method: FGF2 was labeled with Alexa Fluor 488 C5-maleimide (Invitrogen, A10254) following purchaser recommendations.
# This AF488-FGF2 was used at 10 ng/ml in binding experiments on murine pre-B 300-19 cells transfected with FGFR1 or FGFR4 constructs in pEF6-V5/His Topo plasmids (Invitrogen). SSR (300 nM final) was pre-incubating 20 min with cells in RPMI 1640 (Invitrogen, 32404-014) with 10% FCS (Hyclone, SH30070.03), 2 mM glutamine, MEM non-essential amino-acid 1× (Gibco, 11140-035), MEM sodium pyruvate 1× (Gibco, 11360-039) and […] monothioglycerol (Sigma, M6145) at 4° C. under 150 rpm agitation. Then, FGF2 (10 ng/ml final) is added for 30 min and binding is measured using a FACS Calibur flow cytometer (Beckton Dickinson). Fluorescence median for each condition is also analysed.
# HUVEC = HUVEC in vitro angiogenesis; assay type: cell-based, human; details: low nanomolar range
# Method: Collagen/matrigel gels are prepared by distributing in each well of a chamberslide (Biocoat Cellware collagen, Type I, 8-well culturesides: Becton dickinson 354630), 160 μl of 1/6 diluted matrigel (Growth factor reduced Matrigel: Becton dickinson 356230) in collagen I (rat Tail collagene, type I: Becton dickinson 354236). Polymerisation occurs at 37° C. for 1 h. Then, 15.10^3 HUVEC are added per well in 400 μl EBM medium (Clonetics C3121)+2% FCS+hEGF 10 μg/ml. Endothelial cells are stimulated with 10 ng/ml of FGF2 (R&D, 133-FB-025), FGF4 (R&D, 235-F4-025) or FGF19 (R&D, 969-FG-025) for 24 h at 37° C. in a CO2 chamber. Then, total length of pseudotubules is quantified using a bioimaging system (Imagenia Biocom, Courtaboeuf, France).
smiles,measurement,setting,value
COc1c(C)c(C(=O)c2ccc(N)c(C(=O)[O-])c2)n2ccccc12.[Na+] [SSR],IC50,FGFR2^∂23-Y328D [1],121 ± 30 nM
same,inhibition of I^125-FGF2 binding to its receptor,FGFR1 (PAE-FGFR1),unable to inhibit I^125-FGF2 binding
same,change of FTIR spectrum (conformational change),FGFR2^∂23-Y328D [2],failed to induce this change
same,inhibition of I^125-FGF2 binding to its receptor,[3],unable to inhibit I^125-FGF2 binding
same,binding to FGFR3,FGFR3^∂23,bound
same,FGF2 dimerization,FGF2,not able to inhibit
same,competition with AlexaFluor488-labelled FGF2 binding to FGFR4,FGFR4,not able to compete this binding
same,FGF2-induced HUVEC in vitro angiogenesis,HUVEC,blocks FGF2-induced HUVEC angiogenesis
